In PubChem BioAssay (NCI):
Several values for one entry are separate records, joined by “and”; a condition that tells them apart may be missing. Identical values can stand only once.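 In this assay, cells in 96-well plates receive the compound at five concentrations for 48 hours. Endpoints are linearly interpolated between the surrounding concentrations. At the GI50, growth is halved. TGI denotes the concentration required for complete inhibition of growth.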

Each molecule was assayed on SF-268 CNS (assay: NCI tumour cell line growth inhibition, 48 h).
Work on `O=c1ccc2ccccc2cc1[O-].O=c1ccc2ccccc2cc1[O-].[O]=[U+2]=[O]` yielded a GI50 of 22.2 µM and a TGI of 51.8 µM.
`O=C1NC(=NC(CO)Cc2ccccc2)S/C1=C\c1ccc2ncccc2c1` (stereo unspecified) was tested, and the GI50 was 20 µM and 4.36 µM and the TGI was over 25 µM.
In the case of `COC(=O)C(CCCN1C(=O)c2ccccc2C1=O)C(=O)OC`, the TGI is reported as over 100 µM.
With `CC(C)(C)c1cc2c(O)c3cccc4c(=O)c5cccc6c5-c(c34)c2c(c1)c6=O` the TGI was over 100 µM.
For `Nc1cc(NN=C(c2ccc(O)cc2)c2ccc(O)cc2)c([N+](=O)[O-])cc1[N+](=O)[O-]`, the GI50 was 1.73 µM and the TGI was 3.45 µM.
`O=C1C=CC(=O)c2nc3c(cc21)CCC3` showed a TGI of 37.3 µM.
`Nc1c(C(=O)Nc2cccc(C(F)(F)F)c2)sc2nc3c(cc12)CCCCC3` gave a GI50 of 2.99 µM and a TGI of 16.2 µM.
`CCCCN(CCCC)C(=O)C(=O)C(C(=O)c1ccc(OC)cc1)c1ccc(OC)cc1` (stereo unspecified) gave a TGI of over 100 µM.
`C=C(C)CCOC(c1ccccc1)(c1ccccc1)c1ccccc1` was tested, and the TGI was over 100 µM.
`COc1ccc(C)cc1-c1cc(Sc2ccccc2)c(-c2cc(C)ccc2OC)o1` gave a TGI of over 31.6 µM.
`CC(=O)O/N=C(/C)c1ccccc1O` gave a TGI of over 100 µM.
`CC1(C)OC1COc1c2occc2cc2ccc(=O)oc12` (stereo unspecified) gave a TGI of over 100 µM.
With `CCCCCCCCCCCCC(O)c1ccc(C#CCCCCCCCCCO)o1` (stereo unspecified) the GI50 was 23.2 µM and the TGI was 49.4 µM.
With `COc1ccc(CCN=C2NC(=O)/C(=C/c3ccc4ncccc4c3)S2)cc1` the GI50 was over 25 µM and the TGI was over 25 µM.
For `CN(C)CCn1c2c3ccccc3ccc2c2oc(=O)c3ccccc3c21`, the TGI was 7.86 µM.

The molecules below were run on IGROV1 ovarian (assay: NCI tumour cell line growth inhibition, 48 h).
Molecule `COC(=O)CC(c1ccccc1)C1(c2ccccc2)SCCS1` (stereo unspecified) has a TGI of over 290 µM.
`CCOC(=O)C1=C(C(=O)OCC)C2c3ccccc3C=CN2C(C(=O)OCC)=C(SC)S1` (stereo unspecified) gave a TGI of over 100 µM.
In the case of `CCCCCCCCCCCCCCCC[N+](C)(C)Cc1ccccc1`, the GI50 is reported as 0.209 µM and the TGI is reported as 0.533 µM.
In the case of `CCCCCC[C@@H]1CCC2C(CO)[C@@H](O)CC[C@@H]2C1` (stereo partly specified), the TGI is reported as 34.7 µM.
Work on `CCN(Cc1ccc(F)cc1)c1cc(Cl)c(CO)c(Cl)c1` yielded a GI50 of 4.08 µM and a TGI of 17.9 µM.
With `NC(=O)c1ccccc1NC(=O)C(=O)C(C(=O)c1ccc(Cl)c(Cl)c1)C1OC(=O)c2ccccc21` (stereo unspecified) the TGI was over 100 µM.
`COc1cc(-c2ccc3cc(OC)c(OC)c(OC)c3c2)cc(OC)c1OC` showed a GI50 of 40.4 µM and a TGI of over 100 µM.
`S=c1sc2c(n1-c1ccccc1)NC=NC2S` (stereo unspecified) gave a TGI of over 100 µM.
With `Cc1csc(-c2nnc(Nc3ccc(Oc4ncccc4-c4ccnc(N)n4)cc3)c3ccccc23)c1` the GI50 was 3.35 µM and the TGI was over 100 µM.
In the case of `Cc1ccc(/C=C/C(=O)CCN(C)C)cc1`, the TGI is reported as 37.1 µM.
`COc1cc(C2CC(C)(O)Oc3cc4c(cc32)OCO4)cc(OC)c1OC` (stereo unspecified) gave a TGI of over 100 µM.
Work on `CCCCCCCCCCn1cc[n+](C)c1` yielded a GI50 of 2.07 µM and a TGI of 10.1 µM.
Molecule `CC1SC(c2ccc(F)cc2)N(NC(=O)C(O)c2ccccc2)C1=O` (stereo unspecified) has a GI50 of over 100 µM and a TGI of over 100 µM.
In the case of `O=C(Oc1ccc(Cl)cc1)c1ccccc1Nc1ccnc(C(F)(F)F)c1`, the GI50 is reported as 15.3 µM and the TGI is reported as over 100 µM.
Work on `Cc1cc2c(C)[nH]nc2c(C(=O)O)c1C` yielded a TGI of over 100 µM.
With `Nc1n[nH]c2cccc(C#Cc3cccc(C(=O)Nc4ccc(CN5CCOCC5)c(C(F)(F)F)c4)c3)c12` the GI50 was 2.35 µM and the TGI was 7.01 µM.
`COc1ccc(-c2cn[nH]c2-c2cc(OC)c(OC)c(OC)c2)cc1` was tested, and the GI50 was 0.0363 µM and the TGI was 19.9 µM.
`Nc1ccccc1SC(CC(=O)c1ccccc1)c1cccc([N+](=O)[O-])c1` (stereo unspecified) gave a GI50 of 13.1 µM and a TGI of 28.1 µM.
With `O=C(/C=C/c1ccc([N+](=O)[O-])cc1)c1ccc(NCc2nc3ccccc3[nH]2)cc1` the TGI was 18.1 µM.
Molecule `COc1ccc2nc(NC(=O)CSc3nnc4n3S(=O)(=O)c3ccccc3N4c3ccccc3)sc2c1` has a GI50 of 5.47 µM and a TGI of 55.1 µM.
`O=c1ccc2ccccc2cc1[O-].O=c1ccc2ccccc2cc1[O-].[O]=[U+2]=[O]` was tested, and the GI50 was 23.4 µM and the TGI was 84.5 µM.
In the case of `O=C1NC(=NC(CO)Cc2ccccc2)S/C1=C\c1ccc2ncccc2c1` (stereo unspecified), the GI50 is reported as 12.8 µM and 2.08 µM and the TGI is reported as over 25 µM.
Work on `COC(=O)C(CCCN1C(=O)c2ccccc2C1=O)C(=O)OC` yielded a TGI of over 100 µM.
`COc1nc(NC2OC(COC(C)=O)C(OC(C)=O)C(OC(C)=O)C2OC(C)=O)c2c(OC(C)=O)cc(=O)oc2n1` (stereo unspecified) showed a TGI of over 100 µM.
Molecule `CC(C)(C)c1cc2c(O)c3cccc4c(=O)c5cccc6c5-c(c34)c2c(c1)c6=O` has a TGI of over 100 µM.
In the case of `Nc1cc(NN=C(c2ccc(O)cc2)c2ccc(O)cc2)c([N+](=O)[O-])cc1[N+](=O)[O-]`, the GI50 is reported as 2.28 µM and the TGI is reported as 5.38 µM.
For `O=C1C=CC(=O)c2nc3c(cc21)CCC3`, the TGI was 34 µM.
For `CCCCN(CCCC)C(=O)C(=O)C(C(=O)c1ccc(OC)cc1)c1ccc(OC)cc1` (stereo unspecified), the TGI was over 100 µM.
For `C=C(C)CCOC(c1ccccc1)(c1ccccc1)c1ccccc1`, the TGI was over 100 µM.
In the case of `COc1ccc(C)cc1-c1cc(Sc2ccccc2)c(-c2cc(C)ccc2OC)o1`, the TGI is reported as over 31.6 µM.
`CC(=O)O/N=C(/C)c1ccccc1O` was tested, and the TGI was over 100 µM.
Molecule `CC1(C)OC1COc1c2occc2cc2ccc(=O)oc12` (stereo unspecified) has a TGI of over 100 µM.
`CCCCCCCCCCCCC(O)c1ccc(C#CCCCCCCCCCO)o1` (stereo unspecified) was tested, and the GI50 was 25.9 µM and the TGI was 51.8 µM.
`COc1ccc(CCN=C2NC(=O)/C(=C/c3ccc4ncccc4c3)S2)cc1` gave a GI50 of over 25 µM and a TGI of over 25 µM.
With `CN(C)CCn1c2c3ccccc3ccc2c2oc(=O)c3ccccc3c21` the TGI was 55.5 µM.

The molecules below were run on EKVX NSCLC (assay: NCI tumour cell line growth inhibition, 48 h).
With `COC(=O)CC(c1ccccc1)C1(c2ccccc2)SCCS1` (stereo unspecified) the TGI was over 290 µM.
Molecule `CCOC(=O)C1=C(C(=O)OCC)C2c3ccccc3C=CN2C(C(=O)OCC)=C(SC)S1` (stereo unspecified) has a TGI of over 100 µM.
In the case of `CCCCCC[C@@H]1CCC2C(CO)[C@@H](O)CC[C@@H]2C1` (stereo partly specified), the TGI is reported as 32.7 µM.
Molecule `NC(=O)c1ccccc1NC(=O)C(=O)C(C(=O)c1ccc(Cl)c(Cl)c1)C1OC(=O)c2ccccc21` (stereo unspecified) has a TGI of over 100 µM.
With `S=c1sc2c(n1-c1ccccc1)NC=NC2S` (stereo unspecified) the TGI was over 100 µM.
With `Cc1csc(-c2nnc(Nc3ccc(Oc4ncccc4-c4ccnc(N)n4)cc3)c3ccccc23)c1` the GI50 was over 100 µM and the TGI was over 100 µM.
`COc1cc(C2CC(C)(O)Oc3cc4c(cc32)OCO4)cc(OC)c1OC` (stereo unspecified) gave a TGI of over 100 µM.
In the case of `CCCCCCCCCCn1cc[n+](C)c1`, the GI50 is reported as 0.536 µM and the TGI is reported as 11.6 µM.
`CC1SC(c2ccc(F)cc2)N(NC(=O)C(O)c2ccccc2)C1=O` (stereo unspecified) was tested, and the GI50 was over 100 µM and the TGI was over 100 µM.
`O=C(Oc1ccc(Cl)cc1)c1ccccc1Nc1ccnc(C(F)(F)F)c1` showed a GI50 of 25.2 µM and a TGI of 64 µM.
`Cc1cc2c(C)[nH]nc2c(C(=O)O)c1C` was tested, and the TGI was over 100 µM.
Molecule `Nc1n[nH]c2cccc(C#Cc3cccc(C(=O)Nc4ccc(CN5CCOCC5)c(C(F)(F)F)c4)c3)c12` has a GI50 of 3.42 µM and a TGI of 19 µM.
Molecule `O=C(/C=C/c1ccc([N+](=O)[O-])cc1)c1ccc(NCc2nc3ccccc3[nH]2)cc1` has a TGI of 22.2 µM.
`COc1ccc2nc(NC(=O)CSc3nnc4n3S(=O)(=O)c3ccccc3N4c3ccccc3)sc2c1` gave a GI50 of over 100 µM and a TGI of over 100 µM.
For `O=c1ccc2ccccc2cc1[O-].O=c1ccc2ccccc2cc1[O-].[O]=[U+2]=[O]`, the GI50 was 10.4 µM and the TGI was 55.7 µM.
In the case of `COC(=O)C(CCCN1C(=O)c2ccccc2C1=O)C(=O)OC`, the TGI is reported as over 100 µM.
`COc1nc(NC2OC(COC(C)=O)C(OC(C)=O)C(OC(C)=O)C2OC(C)=O)c2c(OC(C)=O)cc(=O)oc2n1` (stereo unspecified) was tested, and the TGI was over 100 µM.
Work on `CC(C)(C)c1cc2c(O)c3cccc4c(=O)c5cccc6c5-c(c34)c2c(c1)c6=O` yielded a TGI of over 100 µM.
`Nc1cc(NN=C(c2ccc(O)cc2)c2ccc(O)cc2)c([N+](=O)[O-])cc1[N+](=O)[O-]` was tested, and the GI50 was 2.42 µM and the TGI was 7.45 µM.
`CCCCN(CCCC)C(=O)C(=O)C(C(=O)c1ccc(OC)cc1)c1ccc(OC)cc1` (stereo unspecified) was tested, and the TGI was over 100 µM.
Molecule `COc1ccc(C)cc1-c1cc(Sc2ccccc2)c(-c2cc(C)ccc2OC)o1` has a TGI of over 31.6 µM.
Molecule `CC(=O)O/N=C(/C)c1ccccc1O` has a TGI of over 100 µM.
With `CC1(C)OC1COc1c2occc2cc2ccc(=O)oc12` (stereo unspecified) the TGI was over 100 µM.
Molecule `CCCCCCCCCCCCC(O)c1ccc(C#CCCCCCCCCCO)o1` (stereo unspecified) has a GI50 of 22.2 µM and a TGI of 43.1 µM.
`CN(C)CCn1c2c3ccccc3ccc2c2oc(=O)c3ccccc3c21` was tested, and the TGI was 36.4 µM.

Each molecule was assayed on ACHN renal (assay: NCI tumour cell line growth inhibition, 48 h).
Work on `COC(=O)CC(c1ccccc1)C1(c2ccccc2)SCCS1` (stereo unspecified) yielded a TGI of over 290 µM.
`CCOC(=O)C1=C(C(=O)OCC)C2c3ccccc3C=CN2C(C(=O)OCC)=C(SC)S1` (stereo unspecified) showed a TGI of over 100 µM.
With `CCCCCCCCCCCCCCCC[N+](C)(C)Cc1ccccc1` the GI50 was 2.43 µM and 2.36 µM and the TGI was 7.96 µM and 6.53 µM.
`CCCCCC[C@@H]1CCC2C(CO)[C@@H](O)CC[C@@H]2C1` (stereo partly specified) showed a TGI of 33.6 µM.
